According to patent publication EP2064211B1, “IMIDAZO[1,2-A]PYRIDINE HYDROXYMATE COMPOUNDS THAT ARE INHIBITORS OF HISTONE DEACETYLASE” (MEI Pharma, Inc., priority 2006, dated 2008):
≈ marks a conversion by molar mass, not a printed value.

Columns and labels:
HDAC1 enzyme = target: T1, HDAC1 enzyme (Homo sapiens, UniProt Q13547); experiment: In vitro HDAC assay for determination of IC50 values (BIOMOL fluorescent-based HDAC activity assay); format: biochemical; details: recombinant GST-HDAC1, 500 uM Flur de lys substrate, room temperature 2 h; read-out: IC50 (HDAC 1)
T1 construct: Amplification of human HDAC1 coding region from this cDNA library was cloned separately into the baculovirus expression pDEST20 vector; made in house; host or cells: SF9 insect cells (baculovirus, pDEST20 vector)
Experimental: Human cDNA library was prepared using cultured SW620 cells. Amplification of human HDAC1 coding region from this cDNA library was cloned separately into the baculovirus expression pDEST20 vector (GATEWAY Cloning Technology, Invitrogen Pte Ltd). The pDEST20-HDAC1 construct was confirmed by DNA sequencing. Recombinant baculovirus was prepared using the Bac-To-Bac method following the manufacturer's instruction (Invitrogen Pte Ltd).
Expression of GST-HDAC1 was done by infecting SF9 cells (Invitrogen Pte Ltd) with pDEST20-HDAC1 baculovirus at MOI=1 for 48 h. Soluble cell lysate was incubated with pre-equilibrated Glutathione Sepharose 4B beads (Amersham) at 4°C for 2 h. The beads were washed with PBS buffer for 3 times. The GST-HDAC1 protein was eluted by elution buffer containing 50 mM Tris, pH8.0, 150mM NaCl, 1% Triton X-100 and 10mM or 20mM reduced Glutathione. The purified GST-HDAC1 protein was dialyzed with HDAC storage buffer containing 10mM Tris, pH7.5, 100mM NaCl and 3mM MgCl2. 20% Glycerol was added to purified GST-HDAC1 protein before storage at -80°C.
The assay has been carried out in 96 well format and the BIOMOL fluorescent-based HDAC activity assay has been applied. The reaction composed of assay buffer, containing 25 mM Tris pH 7.5, 137 mM NaCl, 2.7 mM KCl, 1 mM MgCl2, 1 mg/ml BSA, tested compounds, an appropriate concentration of HDAC1 enzyme, 500 uM Flur de lys generic substrate for HDAC1 enzyme and subsequently was incubated at room temperature for 2 h. Flur de lys Developer was added and the reaction was incubated for 10 min. Briefly, deacetylation of the substrate sensitizes it to the developer, which then generates a fluorophore. The fluorophore is excited with 360 nm light and the emitted light (460 nm) is detected on a fluorometric plate reader (Tecan Ultra Microplate detection system, Tecan Group Ltd.).
The analytical software, Prism 4.0 (GraphPad Software Inc) has been used to generate IC50 from a series of data. IC50 is defined as the concentration of compound required for 50% inhibition of HDAC enzyme activity.

Colo205 cells = experiment: Cell-based proliferation assay for determination of GI50 values (CyQUANT); design: species or system Human; details: Homo sapiens, COLO 205, compound treatment 96 h, concentration for 50% inhibition of cell growth, read-out: Gl50 (Colo205)
Experimental: Human cancer cell lines (e.g. Colo205) were obtained from ATCC. Colo205 cells were cultivated in RPMI 1640 containing 2 mM L-Glutamine, 5% FBS, 1.0 mM Na Pyruvate. Colo205 cells were seeded in 96-wells plate at 5000 cells per well. The plates were incubated at 37°C, 5% CO2, for 24 h. Cells were treated with compounds at various concentrations for 96 h. Cell growth was then monitored using CyQUANT® cell proliferation assay (Invitrogen Pte Ltd). Dose response curves were plotted to determine Gl50 values for the compounds using XL-fit (ID Business Solution, Emeryville, CA). Gl50 is defined as the concentration of compound required for 50% inhibition of cell growth.

[1] = Measurement of microsomal stability; format: in vitro ADME; details: pooled human liver microsomes 1.0 mg/ml, test compound 5 µM, pH 7.4, incubation up to 60 min
Experimental: Metabolic stability measurements in vitro using liver microsomes aids in the prediction of in vivo hepatic clearance and compound stability towards phase I biotransformation reactions mediated by P450 isozymes.
Pooled human liver microsome (HLM) preparation was purchased from BD Gentest (BD BioSciences). The incubations consisted of test compound (5 µM) or control compound (Verapamil), NADPH-generating system solution A (25 mM NADP^+, 66 mM glucose-6-phosphate, 66 mM MgCl2 in H2O), NADPH-generating system solution B (40 U/ml glucose-6-phosphate dehydrogenase in 5 mM sodium citrate) and 1.0 mg/ml microsomal protein, respectively, in 100 mM potassium phosphate buffer (pH 7.4). Samples are incubated for 0, 5, 15, 30, 45, 60min. Reaction is terminated with ice-cold 80% acetonitrile and 20% DMSO. Samples are subsequently centrifuged at 4°C for 15 min at 2,000 rpm. 100 µL of the supernatant is transferred to the LC-MS plate for analysis. Before quantitative analysis, the compound is tuned in the LC/MS machine to get the optimized MS condition. Liquid chromatography is performed on a Luna C18 column (Phenomenex U.S.A, Torrance, CA) (2x50mm, […]). Percentage (%) remaining of compound (by area) of each time point is calculated with respect to time 0. Plot %remaining against time (min) to obtain the curve and use the Prism software to obtain the T1/2. […]

[2] = High Throughput Solubility Profiling (HTSP), kinetic solubility; format: physicochemical; details: phosphate buffer with 2.5% DMSO, aqueous buffer, kinetic from dmso stock, phosphate buffer (pH 7), final concentration 250 µM
Experimental: Determining compound aqueous solubility has become an essential early measurement in the drug discovery process. Poor aqueous solubility can cause problems in many in vitro testing techniques, leading to unreliable results. The standard way to determine the solubility of a compound is to use the shake-flask solubility method. However, this method is inherently low-throughput and labour intensive.
10mM compound stock in DMSO was dissolved in phosphate buffer (pH 7) to give a final concentration of 250µM in 96-well plates in triplicate. The plate was shaken for 1.5 hours at 450 rpm and left to stand for 2 hours to allow the compound to reach its saturation point. The plate was then centrifuged at 2000g for 15 minutes. The supernatant was transferred and mixed with 20µL of DMSO in another 96-well plate. A calibration curve at 100µM and 250µM was prepared from the 10mM stock by dissolving in 60% methanol/phosphate buffer solution. LC/MS was used in the analysis and the area counts were obtained by using the Quantify Method Editor. Using the three point standard curve including zero, the results for solubility were reported. […]

T1 sequence (Q13547 whole entry): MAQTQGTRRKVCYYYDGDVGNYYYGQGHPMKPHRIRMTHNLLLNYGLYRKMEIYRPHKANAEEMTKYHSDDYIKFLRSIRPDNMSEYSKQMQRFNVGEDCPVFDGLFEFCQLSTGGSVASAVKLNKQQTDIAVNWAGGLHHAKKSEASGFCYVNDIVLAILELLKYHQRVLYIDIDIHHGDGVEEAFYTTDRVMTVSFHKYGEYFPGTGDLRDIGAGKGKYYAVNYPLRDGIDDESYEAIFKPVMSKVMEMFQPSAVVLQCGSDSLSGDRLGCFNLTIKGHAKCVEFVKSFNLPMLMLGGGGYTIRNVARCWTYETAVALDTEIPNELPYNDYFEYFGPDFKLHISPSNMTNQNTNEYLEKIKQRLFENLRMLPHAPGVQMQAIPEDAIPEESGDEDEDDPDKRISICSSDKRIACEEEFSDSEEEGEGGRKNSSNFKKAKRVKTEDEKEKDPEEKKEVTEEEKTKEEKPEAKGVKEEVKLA

| IC50 (HDAC1 enzyme) | IC50 (Colo205 cells) | half-life at 5 µM [1] | solubility [2] | SMILES |
| --- | --- | --- | --- | --- |
| 0.02 µM | 0.1 µM | > 1 h |  | CCc1nc2cc(C=CC(=O)NO)ccn2c1CN(CC)CCC(C)C [Compound 64, 3-(2-Ethyl-3-{[ethyl-(3-methyl-butyl)-amino]-methyl}-imidazo[1,2-a]pyridin-7-yl)-N-hydroxy-acrylamide] |
| 0.05 µM | 0.18 µM | > 1 h |  | CCCCN(CC)Cc1c(CC)nc2cc(C=CC(=O)NO)ccn12 [Compound 63, 3-{3-[(Butyl-ethyl-amino)-methyl]-2-ethyl-imidazo[1,2-a]pyridin-7-yl}-N-hydroxy-acrylamide] |
| 0.03 µM | 0.18 µM | 0.983 h |  | CCCCN(CC)Cc1c(C)nc2cc(C=CC(=O)NO)ccn12 [Compound 29, 3-{3-[(Butyl-ethyl-amino)-methyl]-2-methyl-imidazo[1,2-a]pyridin-7-yl}-N-hydroxy-acrylamide] |
|  | 0.11 µM | > 1 h | > 250 µM | CCN(CCC(C)C)Cc1c(C)nc2cc(C=CC(=O)NO)ccn12 [Compound 49, 3-(3-{[Ethyl-(3-methyl-butyl)-amino]-methyl}-2-methyl-imidazo[1,2-a]pyridin-7-yl)-N-hydroxy-acrylamide] |
| 0.54 µM | 4.6 µM |  |  | CCCN(CC)Cc1c(C)nc2cc(C=CC(=O)NO)ccn12 [Compound 30, 3-{3-[(Ethyl-propyl-amino)-methyl]-2-methyl-imidazo[1,2-a]pyridin-7-yl}-N-hydroxy-acrylamide] |
| 0.2 µM | 0.61 µM |  |  | CCCCc1nc2cc(C=CC(=O)NO)ccn2c1CN(CCC)CCC [Compound 6, 3-(2-Butyl-3-dipropylaminomethyl-imidazo[1,2-a]pyridin-7-yl)-N-hydroxy-acrylamide] |
| 0.05 µM | 0.16 µM | 0.75 h |  | CCN(CCC(C)(C)C)Cc1c(C)nc2cc(C=CC(=O)NO)ccn12 [Compound 50, 3-(3-{[(3,3-Dimethyl-butyl)-ethyl-amino]-methyl}-2-methyl-imidazo[1,2-a]pyridin-7-yl)-N-hydroxy-acrylamide] |

The next lines start with the molecule.

| SMILES | IC50 (HDAC1 enzyme) | IC50 (Colo205 cells) | half-life at 5 µM [1] | solubility [2] |
| --- | --- | --- | --- | --- |
| CCCc1nc2cc(C=CC(=O)NO)ccn2c1CNC(C)(C)C [Compound 48, 3-[3-(tert-Butylamino-methyl)-2-propyl-imidazo[1,2-a]pyridin-7-yl]-N-hydroxy-acrylamide] | 0.04 µM | 0.18 µM | > 1 h | 168 µM (≈ 55.5 µg/mL) |
| CC(C)CCc1nc2cc(C=CC(=O)NO)ccn2c1CNC(C)(C)C [Compound 65, 3-[3-(tert-Butylamino-methyl)-2-(3-methyl-butyl)-imidazo[1,2-a]pyridin-7-yl]-N-hydroxy-acrylamide] | 0.02 µM | 0.1 µM | > 1 h |  |
| CCCCc1nc2cc(C=CC(=O)NO)ccn2c1CNC(C)(C)C [Compound 5, 3-[2-Butyl-3-(tert-butylamino-methyl)-imidazo[1,2-a]pyridin-7-yl]-N-hydroxy-acrylamide] | 0.02 µM | 0.14 µM | > 1 h | 200 µM (≈ 68.9 µg/mL) |
| CCN(Cc1c(C(C)(C)C)nc2cc(C=CC(=O)NO)ccn12)CC(C)C [Compound 17, 3-{2-tert-Butyl-3-[(ethyl-isobutyl-amino)-methyl]-imidazo[1,2-a]pyridin-7-yl}-N-hydroxy-acrylamide] | 0.57 µM | 3.9 µM |  |  |
| CCNCc1c(C(C)(C)C)nc2cc(C=CC(=O)NO)ccn12 [Compound 15, 3-(2-tert-Butyl-3-ethylaminomethyl-imidazo[1,2-a]pyridin-7-yl)-N-hydroxy-acrylamide] | 0.06 µM | 0.47 µM |  |  |
| CCCCc1nc2cc(C=CC(=O)NO)ccn2c1CN(C)CCCC [Compound 8, 3-{2-Butyl-3-[(butyl-methyl-amino)-methyl]-imidazo[1,2-a]pyridin-7-yl}-N-hydroxy-acrylamide] | 0.07 µM | 0.17 µM |  |  |
| CCCCN(C)Cc1c(C(C)(C)C)nc2cc(C=CC(=O)NO)ccn12 [Compound 34, 3-{2-tert-Butyl-3-[(butyl-methyl-amino)-methyl]-imidazo[1,2-a]pyridin-7-yl}-N-hydroxy-acrylamide] | 0.22 µM | 1.7 µM |  |  |
| CCCCc1nc2cc(C=CC(=O)NO)ccn2c1CN(CC)CC(CC)CC [Compound 46, 3-(2-Butyl-3-{[ethyl-(2-ethyl-butyl)-amino]-methyl}-imidazo[1,2-a]pyridin-7-yl)-N-hydroxy-acrylamide] | 0.15 µM | 0.39 µM |  |  |
